Measured values taken from patent US7307095B2, “Inhibitors of cathepsin S” (IRM LLC, priority 2003, dated 2007).

Tests used:
Type in all cases: biochemical
Cathepsin B = Cathepsin B (Homo sapiens, UniProt P07858); test: Cathepsin B inhibition, fluorogenic peptide substrate kinetic assay (selectivity ratio vs cathepsin S); details: ratio of cathepsin B inhibition constant to cathepsin S inhibition constant
Description: (§1) Kinetic measurements are performed in a total reaction volume of 30 μl in 384-well microtiter plates. […] Control reactions in the absence of inhibitor are performed in replicates of 24. The reactions are initiated by adding the substrate, acetyl-histidine-proline-valine-lysine-amino carbamoyl coumarin, to a final concentration of 10 μM. The rate of substrate hydrolysis is measured by monitoring the increase in fluorescence at an excitation wavelength of 380 nm and an emission wavelength of 450 nm that results from cleavage of the aniline bond in the substrate by the enzyme. The apparent inhibition constants for the compounds are determined from the enzyme progress curves ([…]. Elrod, et al. Anal Biochem 2000, 286(1), 45-50) and are then used to calculate the inhibition constants for competitive inhibitors. Selectivity for cathepsin S in the presence of cathepsin isozymes was determined by the ratio of the cathepsin isozyme inhibition constant of a compound of the present invention to the cathepsin S inhibition constant of the same compound.

Cathepsin K = molecular target: T1, Cathepsin K (Homo sapiens, UniProt P43235); test: Cathepsin K inhibition, fluorogenic peptide substrate kinetic assay (selectivity ratio vs cathepsin S); details: ratio of cathepsin K inhibition constant to cathepsin S inhibition constant
T1 sequence (P43235 115-329): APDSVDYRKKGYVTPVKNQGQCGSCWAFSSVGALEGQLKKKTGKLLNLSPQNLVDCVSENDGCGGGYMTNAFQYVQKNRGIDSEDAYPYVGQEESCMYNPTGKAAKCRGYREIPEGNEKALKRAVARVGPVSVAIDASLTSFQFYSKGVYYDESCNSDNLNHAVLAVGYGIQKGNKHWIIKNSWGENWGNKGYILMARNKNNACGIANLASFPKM
Description: as §1, with “acetyl-lysine-histidine-proline-lysine-amino” for “acetyl-histidine-proline-valine-lysine-amino”, “40” for “10”

Cathepsin L = Cathepsin L (Homo sapiens, UniProt P07711); test: Cathepsin L inhibition, fluorogenic peptide substrate kinetic assay (selectivity ratio vs cathepsin S); details: ratio of cathepsin L inhibition constant to cathepsin S inhibition constant
Description: as §1, with “The optimal substrate for cathepsin L, acetyl-histidine-lysine-phenylalanine-lysine-amino carbamoyl coumarin, was identified from screening a combinatorial library of fluorogenic peptide substrates (Harris, J. L., B. J. Backes, et al. Proc Natl Acad Sci USA 2000, 97(14), 7754-9). Kinetic” for “Kinetic”, “acetyl-histidine-lysine-phenylalanine-lysine-amino” for “acetyl-histidine-proline-valine-lysine-amino”, “20” for “10”

Cathepsin S = Cathepsin S (Homo sapiens, UniProt P25774); test: Cathepsin S inhibition, fluorogenic peptide substrate kinetic assay; details: Cathepsin S inhibition constant; read-out: Ki Cat. S
Description: The optimal substrate for cathepsin S, acetyl-histidine-proline-valine-lysine-amino carbamoyl coumarin, was identified from screening a combinatorial library of fluorogenic peptide substrates (Harris, J. L., B. J. Backes, et al. Proc Natl Acad Sci USA 2000, 97(14), 7754-9). Kinetic measurements are performed in a total reaction volume of 30 μl in 384-well microtiter plates. […] Control reactions in the absence of inhibitor are performed in replicates of 24. The reactions are initiated by adding the substrate, acetyl-histidine-proline-valine-lysine-amino carbamoyl coumarin, to a final concentration of 50 μM. The rate of substrate hydrolysis is measured by monitoring the increase in fluorescence at an excitation wavelength of 380 nm and an emission wavelength of 450 nm that results from cleavage of the aniline bond in the substrate by the enzyme. The apparent inhibition constants for the compounds are determined from the enzyme progress curves (Kuzmic, P., K. C. Elrod, et al. Anal Biochem 2000, 286(1), 45-50) and are then used to calculate the inhibition constants for competitive inhibitors.

Sequence of Cathepsin S (P25774 115-331, species assumed): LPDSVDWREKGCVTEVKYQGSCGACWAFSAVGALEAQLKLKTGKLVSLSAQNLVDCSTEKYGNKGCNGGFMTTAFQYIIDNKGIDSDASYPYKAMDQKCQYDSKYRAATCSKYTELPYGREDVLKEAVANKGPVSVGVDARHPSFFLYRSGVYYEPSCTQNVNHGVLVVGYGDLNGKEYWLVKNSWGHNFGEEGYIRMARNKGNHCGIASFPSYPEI
Sequence of Cathepsin L (P07711 114-333, species assumed): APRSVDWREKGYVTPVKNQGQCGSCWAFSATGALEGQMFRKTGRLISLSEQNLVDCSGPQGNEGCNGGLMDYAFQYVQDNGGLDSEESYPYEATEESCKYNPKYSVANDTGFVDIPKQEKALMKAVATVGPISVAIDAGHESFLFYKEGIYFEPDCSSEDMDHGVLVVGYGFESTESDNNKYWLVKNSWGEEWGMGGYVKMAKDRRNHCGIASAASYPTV

| Compound | Selectivity for Cat. S over Cat. B (Cathepsin B) | Selectivity for Cat. S over Cat. K (Cathepsin K) | Selectivity for Cat. S over Cat. L (Cathepsin L) | Ki (Cathepsin S) |
| --- | --- | --- | --- | --- |
| CC(C)(C)C[C@H](Nc1nc2ccccc2o1)C(=O)N[C@@H](CC(=O)O)CN1CCc2cc(F)ccc21 [Example 4, 3-(S)-[2-(S)-(Benzooxazol-2-ylamino)-4,4-dimethyl-pentanoylamino]-4-(5-fluoro-2,3-dihydro-indol-1-yl)-butyric acid] | +++ (+++, >1000) | ++ (++, >100) | +++ (+++, >1000) | < 100 nM |
| CC(C)(C)OC(=O)C[C@@H](CN1CCc2cc(F)ccc21)NC(=O)[C@H](CC1CCCCC1)Nc1nc2ccccc2o1 [Example 9, 3-(S)-[2-(S)-(Benzooxazol-2-ylamino)-3-cyclohexyl-propionylamino]-4-(5-fluoro-2,3-dihydro-indol-1-yl)-butyric acid tert-butyl ester] | +++ (+++, >1000) | ++ (++, >100) | ++ (++, >100) | < 100 nM |
| CC(C)(C)C[C@H](Nc1nc2ccccc2o1)C(=O)N[C@@H](CCS(C)(=O)=O)CN1CCc2cc(F)ccc21 [Example 5, 2-(S)-(Benzooxazol-2-ylamino)-4,4-dimethyl-pentanoic acid [1-(S)-(5-fluoro-2,3-dihydro-indol-1-ylmethyl)-3-methanesulfonyl-propyl]-amide] | +++ (+++, >1000) | + (+, >10) | +++ (+++, >1000) | < 100 nM |
| CC(C)(C)C[C@H](Nc1nc2ccccc2o1)C(=O)N[C@@H](COCc1ccccc1)CN1CCc2cc(F)ccc21 [Example 6, 2-(S)-(Benzooxazol-2-ylamino)-4,4-dimethyl-pentanoic acid (R)-[1-benzyloxymethyl-2-(5-fluoro-2,3-dihydro-indol-1-yl)-ethyl]-amide] | +++ (+++, >1000) | + (+, >10) | +++ (+++, >1000) | < 100 nM |
| O=C(N[C@H](CNc1ccc(F)cc1)COCc1ccccc1)[C@H](CC1CCCCC1)Nc1nc2ccccc2o1 [Example 11, 2-(S)-(Benzooxazol-2-ylamino)-N-[1-(R)-benzyloxymethyl-2-(4-fluoro-phenylamino)-ethyl]-3-cyclohexyl-propionamide] | ++ (++, >100) | ++ (++, >100) | ++ (++, >100) | < 100 nM |
| 3-(S)-[2-(S)-(6-Chloro-benzooxazol-2-ylamino)-3-cyclohexyl-propionylamino]-4-(5-fluoro-2,3-dihydro-indol-1-yl)-butyric acid tert-butyl ester [Example 28] | ++ (++, >100) | ++ (++, >100) | ++ (++, >100) | < 1000 nM |
